Measurements taken from patent publication US20070203066A1, “Compositions and methods for inhibiting cellular proliferation” (priority 2005, published 2007).
Non-standard residues stand in square brackets, D forms with d. Primed or numbered codes have the meaning given here. No end group written: not given here. Ida = iminodiacetic acid linker, its two carboxyls bind the Lys side-chain amines of two peptides, giving a homodimer; Ida(3) = iminodiacetic acid linker, Lys side-chain amines bound to its two carboxyl groups; Ida(4) = iminodiacetic acid linker (dimerization linker bound to lysine side chain); Ida″ = iminodiacetic acid linker bound to the Lys side-chain amine, forming a dimer; d(hPhe) = N[C@H](CCc1ccccc1)C(=O)O; Phg = N[C@H](C(=O)O)c1ccccc1; Ahx = NCCCCCC(=O)O

system: HUVECs; type: cell-based; settings: HUVEC proliferation, bFGF at 10 ng/ml or VEGF at 5 ng/ml, 48 hours, BrdU incorporation; read-out: IC50 on HUVECs
In short: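 Proliferation read-out: BrdU incorporation after 48-hour culture (37 ° C, 5% CO2) with graded peptide doses. Cells were in EBM with 2% FCS at 5,000 per well, driven by VEGF (5 ng/ml) or bFGF (10 ng/ml), added after ≥12-hour attachment.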

Row | Substance | IC50 [µM]
1 | 201 (Ac-RARRRQRVAIIF; also: dimer: C-terminal Phe bound to an amino group of a Lys linker, 2 chains per Lys) [compound 201] | < 10
2 | 413 (Ac-WRRRRQAVAIYFK; not fully specified (residue 13, C-terminus); also: homodimer via Ida linker on Lys side chains, linker at 13 via Ida, other end not in the chain) [compound 413] | < 10
3 | RKKQRVKIAYEEIFVQNM [compound 23] | 10 to 30
4 | 304 (Ac-RRRRRQAVRIDIDFK(Ida)-NH2; also: homodimer via Ida linker on Lys15 side chain) [compound 304] | < 10
5 | YGRKKRRQRRR [compound 445] | > 30
6 | 495 (Ac-PRERRQAVAIYFK(Ida″); not fully specified (C-terminus); also: homodimer via Ida linker on Lys13 side chain) [compound 495] | > 30
7 | 505 (Ac-PRRYRQAVAIYFK; not fully specified (residue 13, C-terminus); also: homodimer via Ida linker on Lys13 side chain) [compound 505] | < 10
8 | 257 (Ac-ARRRRQR[dV]AIIFK; not fully specified (C-terminus); also: homodimer: side chain of Lys13 bound to an Ida linker) [compound 257] | < 10
9 | 329 (Ac-ARRRRQRVAIYFK-NH2; not fully specified (residue 13); also: homodimer via Lys13 side chain, GP3 linker) [compound 329] | < 10
10 | 253 (Ac-ARRRRQRVAII[dF]K; not fully specified (C-terminus); also: homodimer: side chain of Lys13 bound to an Ida linker) [compound 253] | < 10
11 | 237 (Ac-RHRRHQRVRIIF; also: dimer via C-terminal Phe to Lys linker) [compound 237] | < 10
12 | KRKRKKQRVKIAYEEIF [compound 66] | 10 to 30
13 | KTKRKRKKQRVKIAYVQNM [compound 39] | 10 to 30
14 | 168 (Ac-RRRRRQRVRIIFK; also: homodimer via GP3 linker on Lys13 side chains) [compound 168] | < 10
15 | 195 (Ac-ARRRRQAVRIIF; also: dimer: C-terminal Phe bound to an amino group of a Lys linker, 2 chains per Lys) [compound 195] | < 10
16 | 217 (Ac-AHHHHQHVAIIF; also: dimer: Phe C-termini joined via Lys linker) [compound 217] | > 30
17 | KRKKQRVKIAYEEIF [compound 68] | > 30
18 | 412 (Ac-VRRRRQAVAIYFK; not fully specified (residue 13, C-terminus); also: homodimer via Ida linker on Lys side chains, linker at 13 via Ida, other end not in the chain) [compound 412] | < 10

Row | Substance | IC50 [µM]
19 | 234 (XRRRRQRVHIIF; Xaa = Acylated Histidine; Dimeric peptide wherein the C terminus of Phe in position 12 of one peptide chain is covalently bound to one of the amino groups of a Lysine linker and Phe of the remaining peptide chain is covalently bound to the other amino group of the Lysine linker.) [compound 234] | < 10
20 | 245 (Ac-RRRHRQRVHIIF; also: homodimer: C-termini of two chains bound to the two amines of a Lys linker) [compound 245] | 10 to 30
21 | 226 (Ac-ARRRRQRVAITFK; also: homodimer via Ida linker on side chain of Lys13) [compound 226] | < 10
22 | 387 (Ac-ARRRRQAVEIYFK-NH2; not fully specified (residue 13); also: homodimer via Ida linker on Lys13 side chain, Ida amine Boc) [compound 387] | < 10
23 | 174 (Ac-RARRRQRVRIIF; also: homodimer via C-terminal Lys linker) [compound 174] | < 10
24 | 481 (Ac-PRRRYQAVAIYFK; not fully specified (residue 13, C-terminus); also: homodimer via Ida linker on Lys13 side chain) [compound 481] | 10 to 30
25 | 177 (Ac-RRRRAQRVRIIF; also: homodimer via C-terminal Lys linker) [compound 177] | < 10
26 | 374 (Ac-ARRRRQRVA[Phg]YFK(Ida(3))-NH2; also: homodimer via Ida linker on Lys13 side chain, Boc on Ida amine) [compound 374] | < 10
27 | 191 (Ac-AARRRQRVRIIF; also: dimer: C-terminal Phe bound to an amino group of a Lys linker, 2 chains per Lys) [compound 191] | < 10
28 | 443 (Ac-RRRRWQAVAIYFK(Ida(4)); not fully specified (C-terminus); also: homodimer via Ida linker at K13) [compound 443] | < 10
29 | 269 (Ac-ARRRRQRVAIEFK-NH2; not fully specified (residue 13); also: homodimer: side chain of Lys13 bound to an Ida linker) [compound 269] | 10 to 30
30 | 486 (Ac-ARRRRQSVAIKF; not fully specified (residue 11); also: homodimer: Lys11 side chain bound to Ida linker (Boc on Ida N)) [compound 486] | < 10
31 | 231 (XRRHRQRVRIIF; Xaa = Acylated Histidine; Dimeric peptide wherein the C terminus of Phe in position 12 of one peptide chain is covalently bound to one of the amino groups of a Lysine linker and Phe of the remaining peptide chain is covalently bound to the other amino group of the Lysine linker.) [compound 231] | < 10
32 | 248 (Ac-RRRRRQHVHIIF; also: homodimer: C-termini of two chains bound to the two amines of a Lys linker) [compound 248] | < 10
33 | KRKKQRVKIAYEEIFVKNM [compound 10] | 10 to 30
34 | 128 (KTKRKRKKQRVKI[Ahx][Ahx]IF; also: dimer: C-terminus of Phe17 of each chain bound to one amino group of a Lysine linker) [compound 128] | < 10
35 | 327 (XHRRRQHVRIYFK; not fully specified; Xaa = Acylated Histidine; The side chain of Lysine at position 13 is covalently bound to an Ida linker forming a homodimer of residues 1 through 13.) [compound 327] | < 10
36 | 373 (Ac-ARRRRQRVA[d(hPhe)]YFK(Ida(3))-NH2; also: homodimer via Ida linker on Lys13 side chain, Boc on Ida amine) [compound 373] | 10 to 30
